We go through seven compounds from patent US20100317848A1, “PROCESS FOR THE SYNTHESIS OF DERIVATIVES OF 3-AMINO-TETRAHYDROFURAN-3-CARBOXYLIC ACID AND USE THEREOF AS MEDICAMENTS” (BOEHRINGER INGELHEIM INTERNATIONAL GMBH, priority 2006, published 2010).

≈ marks a conversion by molar mass, not a printed value. Entries after “also recorded” stand apart in the source; their conditions may differ.

In one series the target is T1, human factor Xa (Homo sapiens, UniProt P00742).
T1 construct: released from the colourless chromogenic substrate by human factor Xa; purchased Calbiochem
T1 sequence (P00742 235-488 limits assumed): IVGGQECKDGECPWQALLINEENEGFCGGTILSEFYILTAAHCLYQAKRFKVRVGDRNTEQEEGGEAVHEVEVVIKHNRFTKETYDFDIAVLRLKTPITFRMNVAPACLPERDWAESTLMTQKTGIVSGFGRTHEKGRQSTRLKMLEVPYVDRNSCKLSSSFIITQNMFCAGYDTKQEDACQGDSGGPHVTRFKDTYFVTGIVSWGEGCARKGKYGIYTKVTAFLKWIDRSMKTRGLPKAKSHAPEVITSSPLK
T1 sequence (P00742 41-179 partner limits assumed): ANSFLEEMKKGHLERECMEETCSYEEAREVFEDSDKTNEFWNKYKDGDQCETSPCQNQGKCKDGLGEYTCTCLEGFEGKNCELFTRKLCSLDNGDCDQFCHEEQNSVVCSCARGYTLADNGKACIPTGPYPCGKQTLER
Description: Inhibition of factor Xa, enzyme-kinetic measurement with chromogenic substrate. The class given is biochemical. Particulars: FXa assay; (S)-form versus (R)-form at the tetrahydrofuran carbon. The protocol:
The compounds listed in the Experimental Section were investigated for their effect on the inhibition of factor Xa as follows:
Enzyme-kinetic measurement with chromogenic substrate. The quantity of p-nitroaniline (pNA) released from the colourless chromogenic substrate by human factor Xa is determined photometrically at 405 nm. It is proportional to the activity of the enzyme used. The inhibition of the enzyme activity by the test substance (in relation to the solvent control) is determined at various concentrations of test substance and from this the IC50 is calculated, as the concentration which inhibits the factor Xa used by 50%.
Tris(hydroxymethyl)-aminomethane buffer (100 mMol) and sodium chloride (150 mMol), pH 8.0 plus 1 mg/ml Human Albumin Fraction V, protease-free Factor Xa (Calbiochem), spec. activity: 217 IU/mg, final concentration: 7 IU/ml for each reaction mixture Substrate S 2765 (Chromogenix), final concentration: 0.3 mM/l (1 KM) for each reaction mixture Test substance: final concentration 100, 30, 10, 3, 1, 0.3, 0.1, 0.03, 0.01, 0.003, 0.001 μMol/l
10 μl of a 23.5-times concentrated starting solution of the test substance or solvent (control), 175 μl of TRIS/HSA buffer and 25 μl of a 65.8 U/L Factor Xa working solution are incubated for 10 minutes at 37° C. After the addition of 25 μl of S 2765 working solution (2.82 mMol/l) the sample is measured in a photometer (SpectraMax 250) at 405 nm for 600 seconds at 37° C.
1. Determining the maximum increase (deltaOD/minutes) over 21 measuring points. 2. Determining the % inhibition based on the solvent control. 3. Plotting a dosage/activity curve (% inhibition vs substance concentration). 4. Determining the IC50 by interpolating the X-value (substance concentration) of the dosage/activity curve at Y=50% inhibition.

A short description of series [1]: Solubility in different aqueous media. The format is physicochemical. To be noted: for solubility: aqueous medium.
Series [2] in a line: Intrinsic dissolution rate in aqueous media, rotating disc method. The format is physicochemical. To be noted: for dissolution rate: 37° C., 200 rpm. Here is the method:
The intrinsic dissolution rate was determined in aqueous media covering a range of pH 1.1-7.4 using the rotating disc method which maintains a constant surface area. 5 mg of drug substance was compressed to form a disc at 356.1 N for 60 s. These discs were mounted to specially designed sample holders which fit into a Sotax dissolution tester. The dissolution media (37° C.) were stirred at 200 rpm. Samples were automatically withdrawn every second minute from the dissolution vessel and assayed via UV spectrophotometry. The intrinsic dissolution rate expressed in μg/cm^2/min was calculated using the slope of the concentration versus time plot and from the linear portion of the slope of the dissolution curve, volume of dissolution medium (35 ml) and area (diameter: 2 mm) of the exposed disk.

Take `N#C/N=C1\CCOCCN1c1ccc(NC(=O)[C@]2(NC(=O)c3ccc(Cl)s3)CCOC2)cc1` [(S)-5-chloro-thiophene-2-carboxylic acid-N-{3-[4-(5-cyanimin-[1.4]oxazepan-4-yl)-phenylcarbamoyl]-tetrahydrofuran-3-yl}-amide]: on human factor Xa, the “IC50 at an approximately x-fold lower plasma concentration compared to the (R)-enantiomer / corresponding (3R)-diastereoisomer” value is recorded as “approximately 15 fold”.

In the case of `CN1CCc2ccc(NC(=O)[C@]3(NC(=O)c4ccc(Br)s4)CCOC3)cc2CC1` [(S)-3-[(5-bromo-thiophen-2-yl)-carbonylamino]-N-(3-methyl-2,3,4,5-tetrahydro-1H-benzo[d]azepin-7-yl)-tetrahydrofuran-3-carboxylic acid amide], the “IC50 at an approximately x-fold lower plasma concentration compared to the (R)-enantiomer / corresponding (3R)-diastereoisomer” value against human factor Xa is reported as “approximately 9 fold”.

For the compound `C[C@@H]1CN(C)CCc2ccc(NC(=O)[C@]3(NC(=O)c4ccc(Cl)s4)CCOC3)cc21` [(3S)-3-[(5-chloro-thiophen-2-yl)-carbonylamino]-N-((5S)-3,5-dimethyl-2,3,4,5-tetrahydro-1H-benzo[d]azepin-7-yl)-tetrahydrofuran-3-carboxylic acid amide], the “IC50 at an approximately x-fold lower plasma concentration compared to the (R)-enantiomer / corresponding (3R)-diastereoisomer” value at human factor Xa was “approximately 7 fold”.

Take `CN1CCc2ccc(NC(=O)[C@]3(NC(=O)c4ccc(Cl)s4)CCOC3)cc2CC1` [(S)-3-[(5-chloro-thiophen-2-yl)-carbonylamino]-N-(3-methyl-2,3,4,5-tetrahydro-1H-benzo[d]azepin-7-yl)-tetrahydrofuran-3-carboxylic acid amide]: the solubility in words result in series [1] (acidic media) is “excellent solubility; also recorded: high solubility”; in series [1] (neutral and basic media), “reduced solubility”. Moreover, the solubility in series [1] (aqueous buffer, medium: 0.01 N NaOH) is 46 µg/mL (≈ 0.106 mM); in series [1] (aqueous buffer, medium: pH 2.2), above 10000 µg/mL; in series [1] (aqueous buffer, medium: pH 4.0), above 10000 µg/mL; in series [1] (aqueous buffer, medium: pH 6.0), above 10000 µg/mL; in series [1] (aqueous buffer, medium: pH 7.4) it was 1800 µg/mL (≈ 4.15 mM); in series [1] (simulated gastric fluid, medium: 0.1 N HCl) it was above 10000 µg/mL. In series [1] (medium: water), this compound gave a solubility of 280 µg/mL (≈ 0.645 mM). The “pH of the saturated solution” value in series [1] (medium: 0.01 N NaOH) is reported as 11.8; in series [1] (medium: 0.1 N HCl), 1.0; in series [1] (medium: pH 2.2), 2.4; in series [1] (medium: pH 4.0), 4.3; in series [1] (medium: pH 6.0), 6.3; in series [1] (medium: pH 7.4) it was 7.5. The “pH of the saturated solution” value in series [1] (medium: water) is reported as 8.6. The “dissolution rate in words” value in series [2] (pH 7.4) is listed as “acceptable dissolution rates”; in series [2] (up to pH 6.0), “very fast dissolution rates”. Moreover, the dissolution rate was 8220 μg/cm^2/min in series [2] (pH of aqueous medium 1.1); 4520 μg/cm^2/min in series [2] (pH of aqueous medium 2.3); 4000 μg/cm^2/min in series [2] (pH of aqueous medium 3.2); 3110 μg/cm^2/min in series [2] (pH of aqueous medium 4.1); 4015 μg/cm^2/min in series [2] (pH of aqueous medium 5.1); 4140 μg/cm^2/min in series [2] (pH of aqueous medium 6.0). Further, the dissolution rate in series [2] (pH of aqueous medium 7.4) is 240 μg/cm^2/min. For the same compound, the “IC50 at an approximately x-fold lower plasma concentration compared to the (R)-enantiomer / corresponding (3R)-diastereoisomer” value on human factor Xa was “approximately 8 fold”.

Consider `C[C@H]1CN(C)CCc2ccc(NC(=O)[C@]3(NC(=O)c4ccc(Cl)s4)CCOC3)cc21` [(3S)-3-[(5-chloro-thiophen-2-yl)-carbonylamino]-N-((5R)-3,5-dimethyl-2,3,4,5-tetrahydro-1H-benzo[d]azepin-7-yl)-tetrahydrofuran-3-carboxylic acid amide], for which, at human factor Xa, the “IC50 at an approximately x-fold lower plasma concentration compared to the (R)-enantiomer / corresponding (3R)-diastereoisomer” value is given as “approximately 10 fold”.

`Cc1cc(NC(=O)[C@]2(NC(=O)c3ccc(Cl)s3)CCOC2)ccc1N1CCOCC/C1=N\C#N` [(S)-5-chloro-thiophene-2-carboxylic acid-N-{3-[3-methyl-4-(5-cyanimin-[1.4]oxazepan-4-yl)-phenylcarbamoyl]-tetrahydrofuran-3-yl}-amide]: the “IC50 at an approximately x-fold lower plasma concentration compared to the (R)-enantiomer / corresponding (3R)-diastereoisomer” value on human factor Xa was “approximately 17 fold”.

Regarding `Cc1cc(NC(=O)[C@]2(NC(=O)c3ccc(Br)s3)CCOC2)ccc1N1CCOCCC1=O` [(S)-5-bromo-thiophene-2-carboxylic acid-N-{3-[3-methyl-4-(5-oxo-[1,4]oxazepan-4-yl)-phenylcarbamoyl]-tetrahydrofuran-3-yl}-amide], the “IC50 at an approximately x-fold lower plasma concentration compared to the (R)-enantiomer / corresponding (3R)-diastereoisomer” value against human factor Xa is “approximately 16 fold”.

The solubility is the concentration that dissolves in the medium under given conditions. Lower therefore signals a poorly soluble substance.
